Where a SMILES comes first, the peptide text is derived from it. [ ]: non-standard residue; d: D form. Phe(4-NO2) = N[C@@H](Cc1ccc([N+](=O)[O-])cc1)C(=O)O; Bpa = N[C@@H](Cc1ccc(C(=O)c2ccccc2)cc1)C(=O)O
Experiments:
[1] = test system: HIF-driven expression of YFP in T-REx-293 reporter cell line; experiment: HRE-YFP reporter assay in hypoxia; type: cell-based, human; details: T-Rex-293 HRE-YFP reporter
From the text: Following in vitro characterization and optimization of binding, we next assessed the effect of our cyclic peptides in mammalian cells. A cell line with a stably integrated reporter was constructed, in which the expression of yellow fluorescent protein (YFP) was placed under the control of a HRE. Thus, hypoxia would be expected to increase YFP expression (and subsequent fluorescence) in these cells, whereas treatment with a cell-permeable HIF inhibitor would be expected to reduce this fluorescence signal. A fusion cassette was designed containing the YFP gene preceded by three copies of the HRE sequence. This cassette was stably integrated into T-REx-293 cells as previously described.[12] […] The effect of this compound on the viability of T-Rex-293 was assessed with no effect observed at doses up to 75 μM (Figure S9a). […] It should be noted that the relative activity of each compound in this assay will be a combination of its cell permeability and HIF-inhibiting activity. […] We therefore continued to further characterize the cell activity of the 4-iodo-phenylalanine derivative. […]
Generation of HRE-eYFP integrated cell line
The Flp-In System (Fisher) was used to generate a constitutive expression cell line that expresses eYFP under the control of the VEGF HRE. The coding sequence of the yellow fluorescent protein (eYFP) was cloned downstream of the VEGF HRE sequence in the pcDNA5 plasmid, such that the entire cassette was under the regulation of a Tet-On gene expression system. The plasmid was transfected into a human embryonic kidney cell line (Flp-In™-293) and integrated using the manufacturer’s protocol.
Activity Assessment using Flp-In-HRE-eYFP cell line
The Flp-In-HRE-eYFP cells were plated on 24-well plates at 80% confluency and incubated overnight under normoxic conditions. The cells were then treated with different concentrations of compound and incubated for 18 hours under hypoxic conditions. After treatment, the cells were washed with PBS and lysed to extract the total cellular protein. The cell extract was cold centrifuged for 20 minutes at 14,000 RPM. An equal amount of the supernatant from each treatment was plated on a 96-well plate, and the emission of eYFP was measured using a microplate reader. […]

HIF-1α PAS-B domain = biological target: T1, HIF-1α PAS-B domain (Homo sapiens, UniProt Q16665); experiment: MST binding to the PAS-B domain of HIF-1α; details: MST; for Kd: mean ± SEM, n = 2 (n = 1 for most C1 analogues, n = 3 in Figure S2), read-out: KD for HIF-1α PAS-B
T1 construct: made in house
T1 sequence (Q16665 238-349 limits assumed): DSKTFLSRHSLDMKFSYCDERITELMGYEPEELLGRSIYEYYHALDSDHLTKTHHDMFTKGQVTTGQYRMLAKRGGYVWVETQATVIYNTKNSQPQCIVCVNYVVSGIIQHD
Procedure: (§1) All reagents were purchased from Fisher Scientific or Sigma Aldrich UK unless specified otherwise.
(§2) Restriction enzymes and microbiology reagents were purchased from New England Biolabs Inc., Fisher Scientific (UK) or Promega (UK) and were used as directed by the manufacturer. Primers and oligonucleotides were synthesised by Integrated DNA Technologies (UK). DNA sequencing was carried out by Eurofins MWG Operon (Germany).
(§3) Construction of the RTHS and SICLOPPS library, screening, purification of recombinant HIF proteins, and the PLA was conducted as previously described in Miranda et al., J. Am. Chem. Soc., 2013, 135(28); […]
(§4) Protein labelling with MST dye
(§5) Protein was buffer exchanged from storage buffer into labelling buffer (0.1 M NaHCO3, pH 8.5) using a PD spintrap G-25 column (GE healthcare). The protein concentration was then adjusted to 20 µM.
(§6) The commercially sourced MST dye (NanoTemper) was prepared as a 470 µM solution in DMSO, which was then further diluted to 60 µM using labelling buffer. To the protein solution was added an equal volume of dye solution, and the labelling reaction was left for 1 hour in the dark at room temperature.
(§7) The labelled protein was separated from unreacted dye by elution through a PD minitrap G-25 column (GE healthcare). Labelled protein was then aliquoted and stored at -80 °C. Extent of labelling was measured by the absorbance obtained using the UV-vis mode on a NanoDrop ND-1000 Spectrophotometer (NanoDrop Technologies, USA).
(§8) Labelled protein was thawed on ice and diluted to 50 nM in assay buffer containing 50 mM Tris pH 8.0, 150 mM NaCl, 5% (v/v) glycerol, 1 mM TCEP and 0.05% TWEEN-20. The protein solution was then centrifuged at 12000 rpm for 15 minutes at 4 °C and left on ice. Compounds were prepared and serially diluted in DMSO at 10x assay concentration, before diluting to 2x assay concentration in assay buffer.
(§9) The 2x compound solutions were then mixed 1:1 (v/v) with 50 nM labelled protein solution and left to incubate for 1 hour at room temperature. Solutions were then loaded into Monolith NT.115 Premium Capillaries (NanoTemper) and placed in the sample tray. MST experiments were carried out

[2] = test system: CAIX and VEGF genes in Panc-1 cells; experiment: qPCR of hypoxia-response genes in Panc-1 cells; type: cell-based; details: hypoxic Panc-1 cells, 2 μM
Procedure: (§10) The effect of our lead inhibitor on hypoxia-response signaling was measured by qPCR in cancer cell lines. Cells were treated with either 2 μM of an analogue of the HIF-2-specific inhibitor belzutifan, PT2399 (control), or 50 μM of cyclo-CRLII(4-iodo)F, incubated in hypoxia for […], and the levels of the hypoxia-response genes CAIX([41],[42]) and VEGF([43]) were measured by qPCR. We observed a 51% drop in CAIX transcription and a 43% drop in VEGF transcription in hypoxic MCF-7 (breast cancer) cells treated with 50 μM of cyclo-CRLII(4-iodo)F versus hypoxic MCF-7 cells treated with DMSO only (Figure 6e). […] We also observed a 49% drop in CAIX expression in hypoxic HeLa (cervical cancer) cells treated with cyclo-CRLII(4-iodo)F (Figure S9b). […] We observed a 35% drop in HIF-2-driven VEGF transcription in 786-O cells treated with 50 μM of cyclo-CRLII(4-iodo)F compared to a 50% decrease in 786-O cells treated with PT2399. […]
(§11) Realtime PCR (qPCR) Assay
(§12) Cells were plated on 6cm dishes at 80% confluency and incubated overnight under normoxic conditions. The cells were then treated with compound and incubated for 18 hours in hypoxic conditions. After treatment, the cells were washed with PBS and lysed under hypoxic conditions. The total RNA was extracted from the cells using a commercial RNA extraction kit (Fisher Scientific) following the manufacturer's instructions. A commercial reverse transcription kit (Promega) was used to generate cDNA. The MyTaq™ Mix master mix and appropriate primers targeting CAIX and VEGF were used to perform the qPCR reaction using a qPCR machine (Bio-Rad).

VEGF gene in 786-O cells = experiment: qPCR of HIF-2-driven VEGF in 786-O cells; type: cell-based; details: 2 μM
Procedure: as §10, §11
as §12, with “A commercial reverse transcription kit (Promega) was used to generate cDNA. The MyTaq™ Mix master mix and appropriate primers targeting CAIX and VEGF were used to perform the qPCR reaction using a qPCR machine (Bio-Rad).” left out

[3] = test system: CAIX and VEGF genes in MCF-7 cells; experiment: qPCR of hypoxia-response genes in MCF-7 cells; type: cell-based; details: hypoxic MCF-7 cells, 2 μM
Procedure: as §10, §11, §12

[4] = test system: RCC associated with VHL disease; parameters: method as in PMID 34453144; details: phase 2 clinical trial, all partial responses; cited from earlier work
HIF-2α PAS-B domain = biological target: T2, HIF-2α PAS-B domain (Homo sapiens, UniProt Q99814); experiment: MST binding to the PAS-B domain of HIF-2α; details: MST; for Kd: mean (n = 2) ± SEM
T2 construct: made in house
T2 sequence (Q99814 240-350 limits assumed): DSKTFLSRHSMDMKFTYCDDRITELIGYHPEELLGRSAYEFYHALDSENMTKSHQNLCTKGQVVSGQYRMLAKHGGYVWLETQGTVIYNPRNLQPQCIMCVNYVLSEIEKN
Procedure: as §1, §2, §3, §4, §5, §6, §7, §8, §9

## CC[C@H](C)[C@@H]1NC(=O)[C@H](CC(C)C)NC(=O)[C@H](CCCNC(=N)N)NC(=O)[C@H](CS)NC(=O)[C@H](Cc2ccc([N+](=O)[O-])cc2)NC(=O)[C@H]([C@@H](C)CC)NC1=O [NO2, cyclo-CRLII(4-NO2)F] (cyclo(CRLII[Phe(4-NO2)]))
[1]
  relative activity among the 9 most potent cyclo-CRLIIF derivatives on YFP expression: least active
HIF-1α PAS-B domain
  Kd: 3.3 ± 0.1 µM

## N#Cc1cc(F)cc(Oc2ccc(S(=O)(=O)C(F)F)c3c2CC(F)(F)[C@H]3O)c1 [PT2399, reference compound]
[2]
  drop in CAIX transcription: 23%
  drop in VEGF transcription: 53%
VEGF gene in 786-O cells
  decrease in HIF-2-driven VEGF transcription: 50%
[3]
  inhibition of hypoxia-driven expression of CAIX: did not inhibit
  inhibition of hypoxia-driven expression of VEGF: did not inhibit

## CC[C@H](C)[C@@H]1NC(=O)[C@H](CC(C)C)NC(=O)[C@H](CCCNC(=N)N)NC(=O)[C@H](CS)NC(=O)[C@H](Cc2ccc(C(=O)c3ccccc3)cc2)NC(=O)[C@H]([C@@H](C)CC)NC1=O [(4-Bz)F, cyclo-CRLII(4-Bz)F] (cyclo([Bpa]CRLII))
[1]
  relative activity among the 9 most potent cyclo-CRLIIF derivatives on YFP expression: most active

## CS(=O)(=O)c1ccc(Oc2cc(F)cc(C#N)c2)c2c1[C@H](O)[C@H](F)[C@@H]2F [belzutifan]
[4]
  patients responded: 49%

## CC[C@H](C)[C@@H]1NC(=O)[C@H](CC(C)C)NC(=O)[C@H](CCCCN)NC(=O)[C@H](CS)NC(=O)[C@H](Cc2ccccc2)NC(=O)[C@H]([C@@H](C)CC)NC1=O [cyclo-CKLIIF] (cyclo(CKLIIF))
HIF-2α PAS-B domain
  Hill slope of binding curve to HIF-2α: 1.38
HIF-1α PAS-B domain
  Hill slope of binding curve to HIF-1α: 1.33

## CC[C@H](C)[C@@H]1NC(=O)[C@H](CC(C)C)NC(=O)[C@H](CCCNC(=N)N)NC(=O)[C@H](C)NC(=O)[C@H](Cc2ccccc2)NC(=O)[C@H]([C@@H](C)CC)NC1=O [cyclo-ARLIIF] (cyclo(ARLIIF))
HIF-2α PAS-B domain
  Kd: > 100 µM
HIF-1α PAS-B domain
  Kd: > 100 µM

## CC[C@H](C)[C@@H]1NC(=O)[C@H](C)NC(=O)[C@H](CCCNC(=N)N)NC(=O)[C@H](CS)NC(=O)[C@H](Cc2ccccc2)NC(=O)[C@H]([C@@H](C)CC)NC1=O [cyclo-CRAIIF] (cyclo(CRAIIF))
HIF-2α PAS-B domain
  Kd: 52.3 ± 6.6 µM
HIF-1α PAS-B domain
  Kd: 52.7 ± 5.6 µM

## CC[C@H](C)[C@@H]1NC(=O)[C@H](C)NC(=O)[C@H](CC(C)C)NC(=O)[C@H](CCCNC(=N)N)NC(=O)[C@H](CS)NC(=O)[C@H](Cc2ccccc2)NC1=O [cyclo-CRLAIF] (cyclo(CRLAIF))
HIF-2α PAS-B domain
  Kd: 61 ± 9.1 µM
HIF-1α PAS-B domain
  Kd: 12.8 ± 3.6 µM
